Measured values from ChEMBL document CHEMBL1126985, “Brush-border-enzyme-mediated intestine-specific drug delivery. Amino acid prodrugs of 5-aminosalicylic acid” (J Med Chem, 1993).

What was measured:
[1] = organism: Rattus norvegicus; assay: Fecal recovery in colostomized rats at 2 hr intervals for 48 h; assay type: functional
[2] = organism: Rattus norvegicus; assay: Urinary recovery in non-colostomized rats at 2 hr intervals for 48 h; assay type: functional, Urine
[3] = organism: Rattus norvegicus; assay: Fecal recovery in non-colostomized rats at 2 hr intervals for 48 h; assay type: functional
[4] = organism: Rattus norvegicus; assay: Urinary recovery in colostomized rats at 2 hr intervals for 48 h; assay type: functional, Urine
[5] = Half-life was determined by hydrolysis of compound in a solution of peptidases; assay type: ADME

`N[C@@H](CC(=O)[O-])C(=O)Nc1ccc(O)c(C(=O)[O-])c1.[Na+].[Na+]` showed a Fecal recovery [1] of 35.73%, a Urinary recovery [2] of 30.09% and a Fecal recovery [3] of 34.2%. The Urinary recovery [4] was 32.66%.

Compound `N[C@@H](CCC(=O)[O-])C(=O)Nc1ccc(O)c(C(=O)[O-])c1.[Na+].[Na+]` has a half-life [5] of 1.35 h, a Fecal recovery [1] of 44.2% and a Urinary recovery [2] of 32.42%. The Fecal recovery [3] was 44.29% and the Urinary recovery [4] was 31.83%.

`Nc1ccc(O)c(C(=O)O)c1` [MESALAMINE] showed a Fecal recovery [1] of 5.08%, a Urinary recovery [2] of 78.84% and a Fecal recovery [3] of 4.32%. For the same compound, the Urinary recovery [4] was 69.61%.

`O=C(O)c1cc(/N=N/c2ccc(S(=O)(=O)Nc3ccccn3)cc2)ccc1O` [SULFASALAZINE] showed a Fecal recovery [1] of 37.77%, a Urinary recovery [2] of 32.21% and a Fecal recovery [3] of 38.9%. The Urinary recovery [4] was 33.34%.
